This is an account of results in US20080221116A1, “ISOXAZOLINE ALPHA 1a/1d ADRENORECEPTOR ANTAGONISTS” (priority 2006, published 2008).

“And” between values parts separate entries of the source, which are not always exact repeats. Identical values can stand only once. Like-named read-outs stand apart in the source and are kept apart here.

What all share (settings): COS-7 membranes
One assay concerns the target T1, α1b-AR (Homo sapiens, UniProt P35368).
T1 construct: expressed in transfected cells; host or cells: COS-7 cells (African Green monkey kidney), membranes
T1 sequence (P35368 1-520): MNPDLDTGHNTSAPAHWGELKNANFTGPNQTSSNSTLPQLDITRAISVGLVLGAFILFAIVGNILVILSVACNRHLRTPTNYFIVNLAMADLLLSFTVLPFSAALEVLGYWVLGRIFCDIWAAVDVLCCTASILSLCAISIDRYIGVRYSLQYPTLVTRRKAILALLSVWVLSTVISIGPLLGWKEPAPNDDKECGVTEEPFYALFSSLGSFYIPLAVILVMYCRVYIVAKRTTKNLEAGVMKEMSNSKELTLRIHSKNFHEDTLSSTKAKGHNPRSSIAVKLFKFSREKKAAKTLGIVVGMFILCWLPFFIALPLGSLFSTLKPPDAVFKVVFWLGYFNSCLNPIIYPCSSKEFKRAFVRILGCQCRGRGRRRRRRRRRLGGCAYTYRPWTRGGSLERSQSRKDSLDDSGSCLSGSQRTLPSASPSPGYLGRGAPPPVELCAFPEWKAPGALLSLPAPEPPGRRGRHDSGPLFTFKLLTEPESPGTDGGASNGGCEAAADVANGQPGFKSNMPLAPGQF
In words: α1-Adrenergic Receptor Binding Assay, 125I-HEAT radio-ligand binding, transfected COS-7 cell membranes, α1b subtype. The procedure:
(§1) Membranes were prepared from COS-7 cells (African Green monkey kidney SV40-transformed cells) that had been transfected with one of the three α1-AR subtypes by the following method: COS cells from ten 100 mm tissue culture plates were scraped into a 5 ml volume of TE (a mixture of 50 mM tris(hydroxymethyl)aminomethane hydrochloride (Tris-HCl) and 5 mM ethylenediaminetetraacetic acid (EDTA) at pH 7.4). The cell suspension was disrupted with a Brinkman Polytron (at a setting of 8) for 10 sec. The disrupted cells were centrifuged at 1000×g for 10 min at 4° C. Supernatants were centrifuged at 34,500×g for 20 min at 4° C. The membrane pellets were suspended in a 2 ml volume of TNE (a mixture of 50 mM Tris-HCl, 5 mM EDTA and 150 mM NaCl at pH7.4). An aliquot of the membrane suspension was stored at −70° C. until use. The protein concentration was determined using a BioRad “DC” protein assay kit following membrane solubilization with Triton X-100.
(§2) Triplicate determinations of radio-ligand binding in the presence of increasing concentrations of testing compound were made. The reagents were added to 96-well polypropylene plate wells. Each assay well contained 140 μL TNE, 25 μL 125′-2-(β-4-hydroxyphenyl)ethylaminomethyltetralone (^125I-HEAT) (specific activity 2200 Ci/mmol, Dupont-New England Nuclear, […] final), 10 μL testing compound dissolved in dimethyl sulfoxide (DMSO) ([…] to 10 μM in half-log increments, final), and 25 μL appropriate α1-AR membrane subtype suspension in TNE (0.5 ng/μL for the α1a and α1b subtypes and 13 ng/μL for the α1d subtype). The plate was incubated at rt for 1 hr. The contents of the wells were filtered through a glass filter (type C) (GF/C) membrane Unifilter plate (Packard Instruments) using the Packard Filtermate cell harvester. The filter plates were dried in a vacuum oven for 30 min at 40° C. 25 μL Microscint 20 liquid scintillation fluid (Packard Instuments) was added to each well. The radioactive content was analyzed in the TopCount microplate scintillation counter (Packard Instruments).
(§3) The Ki values (in nM) shown in Table 1 were determined using GraphPad Prism software.

Another assay deals with T2, α1a-AR (Homo sapiens, UniProt P35348).
T2 construct: expressed in transfected cells; host or cells: COS-7 cells (African Green monkey kidney), membranes
T2 sequence (P35348 1-466): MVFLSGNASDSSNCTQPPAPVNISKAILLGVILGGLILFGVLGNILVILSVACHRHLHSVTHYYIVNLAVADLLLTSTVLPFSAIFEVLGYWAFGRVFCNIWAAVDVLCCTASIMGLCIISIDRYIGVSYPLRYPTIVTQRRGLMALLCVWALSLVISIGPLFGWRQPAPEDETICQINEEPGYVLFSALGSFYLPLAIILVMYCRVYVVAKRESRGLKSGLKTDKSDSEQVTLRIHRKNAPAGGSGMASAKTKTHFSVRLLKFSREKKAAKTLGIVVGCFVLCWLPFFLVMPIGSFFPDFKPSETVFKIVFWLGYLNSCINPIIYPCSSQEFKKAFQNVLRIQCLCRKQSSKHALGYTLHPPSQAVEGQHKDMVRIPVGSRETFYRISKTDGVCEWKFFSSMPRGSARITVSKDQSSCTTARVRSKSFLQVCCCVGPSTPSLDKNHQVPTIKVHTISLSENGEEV
In words: α1-Adrenergic Receptor Binding Assay, 125I-HEAT radio-ligand binding, transfected COS-7 cell membranes, α1a subtype. On the procedure: as §1, §2, §3

The target of a further assay is T3, α1d-AR (Homo sapiens, UniProt P25100).
T3 construct: expressed in transfected cells; host or cells: COS-7 cells (African Green monkey kidney), membranes
T3 sequence (P25100 1-572): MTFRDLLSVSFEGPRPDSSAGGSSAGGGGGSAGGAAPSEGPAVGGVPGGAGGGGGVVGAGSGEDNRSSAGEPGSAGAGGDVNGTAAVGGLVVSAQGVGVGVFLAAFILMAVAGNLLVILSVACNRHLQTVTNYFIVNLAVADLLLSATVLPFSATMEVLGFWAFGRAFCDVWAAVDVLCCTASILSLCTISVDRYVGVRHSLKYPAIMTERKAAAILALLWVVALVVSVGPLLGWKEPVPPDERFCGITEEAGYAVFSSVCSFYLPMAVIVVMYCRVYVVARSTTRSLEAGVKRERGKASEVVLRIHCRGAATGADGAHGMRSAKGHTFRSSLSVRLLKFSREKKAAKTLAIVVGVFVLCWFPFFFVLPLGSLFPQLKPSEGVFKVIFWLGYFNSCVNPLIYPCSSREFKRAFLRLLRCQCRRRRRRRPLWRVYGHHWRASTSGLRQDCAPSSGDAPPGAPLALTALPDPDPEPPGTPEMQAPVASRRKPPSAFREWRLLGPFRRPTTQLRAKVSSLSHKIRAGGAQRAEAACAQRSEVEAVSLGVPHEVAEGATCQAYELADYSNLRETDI
Description: α1-Adrenergic Receptor Binding Assay, 125I-HEAT radio-ligand binding, transfected COS-7 cell membranes, α1d subtype. On the procedure:
as §1, §2, §3

Where [1] appears, read: average value, read-out: Alpha 1 Ki α1b (1) Average Value.
[2] abbreviates: individual values, read-out: Alpha 1 Ki α1b (2) Individual Values.
Where [3] appears, read: average value, read-out: Alpha 1 Ki α1a (1) Average Value.
[4] abbreviates: individual values, read-out: Alpha 1 Ki α1a (2) Individual Values.
Setting [5] is: average value, read-out: Alpha 1 Ki α1d (1) Average Value.
[6] abbreviates: individual values, read-out: Alpha 1 Ki α1d (2) Individual Values.

In general, Ki refers to a measure of affinity in units of concentration, obtained from inhibition or displacement. With `CC(C)Oc1ccccc1N1CCN(CC2CC(C(=O)N3CCc4ccc(NCc5ccccc5F)cc43)=NO2)CC1` (centres unmarked) [Compound 15, [6-(2-fluoro-benzylamino)-2,3-dihydro-indol-1-yl]-{5-[4-(2-isopropoxy-phenyl)-piperazin-1-ylmethyl]-4,5-dihydro-isoxazol-3-yl}-methanone], the inhibition constant Ki was 0.128 µM on α1b-AR (setting [1]); 0.128 µM at α1b-AR (setting [2]); 0.0096 µM on α1a-AR (setting [3]); 0.0096 µM on α1a-AR (setting [4]); 0.0116 µM on α1d-AR (setting [5]); 0.0116 µM at α1d-AR (setting [6]).

`CC(C)Oc1ccccc1N1CCN(CC2CC(C(=O)N3CCc4cc(Br)ccc43)=NO2)CC1` (centres unmarked) [Compound 13, (5-bromo-2,3-dihydro-indol-1-yl)-{5-[4-(2-isopropoxy-phenyl)-piperazin-1-ylmethyl]-4,5-dihydro-isoxazol-3-yl}-methanone]: the Ki on α1b-AR (setting [1]) is 0.191 µM; on α1b-AR (setting [2]), 0.402 µM and 0.147 µM and 0.134 µM and 0.0828 µM; on α1a-AR (setting [3]), 0.00248 µM; at α1a-AR (setting [4]), 0.00131 µM and 0.0024 µM and 0.0037 µM and 0.0025 µM; on α1d-AR (setting [5]), 0.00608 µM.

Take `CC(=O)N1CCc2ccc(NC(=O)C3=NOC(CN4CCN(c5ccccc5OC(C)C)CC4)C3)cc21` (centres unmarked) [Compound 24, 5-[4-(2-isopropoxy-phenyl)-piperazin-1-ylmethyl]-4,5-dihydro-isoxazole-3-carboxylic acid (1-acetyl-2,3-dihydro-1H-indol-6-yl)-amide]: the inhibitory constant (Ki) at α1b-AR (setting [1]) stood at 0.101 µM; at α1b-AR (setting [2]), 0.101 µM; at α1a-AR (setting [3]) it was 0.00546 µM; at α1a-AR (setting [4]), 0.00546 µM; at α1d-AR (setting [5]), 0.00395 µM; on α1d-AR (setting [6]), 0.00395 µM.

As to `CC(C)Oc1ccccc1N1CCN(CC2CC(CN3CCCCC3=O)=NO2)CC1` (single isomer, unassigned) [Compound 3, 1-{(5S*)-5-[4-(2-isopropoxy-phenyl)-piperazin-1-ylmethyl]-4,5-dihydro-isoxazol-3-ylmethyl}-piperidin-2-one], the Ki turned out to be 0.215 µM at α1b-AR (setting [1]); 0.215 µM at α1b-AR (setting [2]); 0.0025 µM at α1a-AR (setting [3]); 0.0025 µM at α1a-AR (setting [4]); 0.02 µM on α1d-AR (setting [5]); 0.02 µM at α1d-AR (setting [6]).

On to `CC(C)Oc1ccccc1N1CCN(CC2CC(C(=O)N3CCC(C(=O)c4ccc(F)cc4)CC3)=NO2)CC1` (centres unmarked) [Compound 18, [4-(4-fluoro-benzoyl)-piperidin-1-yl]-{5-[4-(2-isopropoxy-phenyl)-piperazin-1-ylmethyl]-4,5-dihydro-isoxazol-3-yl}-methanone], for which the Ki at α1b-AR (setting [1]) is 0.423 µM; at α1b-AR (setting [2]), 0.423 µM; at α1a-AR (setting [3]), 0.0079 µM; at α1a-AR (setting [4]) it was 0.0099 µM and 0.0059 µM; on α1d-AR (setting [5]), 0.0215 µM; at α1d-AR (setting [6]), 0.022 µM and 0.021 µM.

As to `CC(C)Oc1ccccc1N1CCN(CC2CC(C(=O)N3CCC(Oc4ccccc4)CC3)=NO2)CC1` (centres unmarked) [Compound 29, {5-[4-(2-isopropoxy-phenyl)-piperazin-1-ylmethyl]-4,5-dihydro-isoxazol-3-yl}-(4-phenoxy-piperidin-1-yl)-methanone], the Ki on α1b-AR (setting [1]) is 0.672 µM; on α1b-AR (setting [2]) it was 1.01 µM and 0.333 µM; at α1a-AR (setting [3]) it was 0.0068 µM; on α1a-AR (setting [4]), 0.0022 µM and 0.0114 µM; on α1d-AR (setting [5]), 0.0082 µM; at α1d-AR (setting [6]), 0.0056 µM and 0.0108 µM.

For `CC(C)Oc1ccccc1N1CCN(CC2CC(CN3CCc4ccc(NCc5c(F)cccc5F)cc43)=NO2)CC1` (centres unmarked) [Compound 7, (2,6-difluoro-benzyl)-(1-{5-[4-(2-isopropoxy-phenyl)-piperazin-1-ylmethyl]-4,5-dihydro-isoxazol-3-ylmethyl}-2,3-dihydro-1H-indol-6-yl)-amine], the Ki on α1b-AR (setting [1]) came out at 0.172 µM; on α1b-AR (setting [2]) it was 0.172 µM; at α1a-AR (setting [3]) it was 0.0064 µM; at α1a-AR (setting [4]), 0.0064 µM; on α1d-AR (setting [5]), 0.0094 µM; on α1d-AR (setting [6]) it was 0.0094 µM.

Regarding `CC(C)Oc1ccccc1N1CCN(CC2CC(CN3CCc4ccc(N)cc43)=NO2)CC1` (centres unmarked) [Compound 6, 1-{5-[4-(2-isopropoxy-phenyl)-piperazin-1-ylmethyl]-4,5-dihydro-isoxazol-3-ylmethyl}-2,3-dihydro-1H-indol-6-ylamine], the Ki at α1b-AR (setting [1]) was 0.41 µM; on α1b-AR (setting [2]), 0.41 µM; at α1a-AR (setting [3]), 0.0043 µM; on α1a-AR (setting [4]), 0.0043 µM; at α1d-AR (setting [5]) it was 0.046 µM; on α1d-AR (setting [6]) it was 0.046 µM.

For `CC(C)Oc1ccccc1N1CCN(CC2CC(CN3CCCCC3=O)=NO2)CC1` (centres unmarked) [Compound 1, 1-{5-[4-(2-isopropoxy-phenyl)-piperazin-1-ylmethyl]-4,5-dihydro-isoxazol-3-ylmethyl}-piperidin-2-one], the Ki on α1b-AR (setting [1]) amounted to 0.082 µM; on α1b-AR (setting [2]) it was 0.082 µM; on α1a-AR (setting [3]), 0.00096 µM; on α1a-AR (setting [4]) it was 0.00096 µM; at α1d-AR (setting [5]), 0.0085 µM; at α1d-AR (setting [6]), 0.0085 µM.

For `CC(C)Oc1ccccc1N1CCN(CC2CC(C(=O)N3CCOCC3)=NO2)CC1` (single isomer, unassigned) [Compound 44, {(5S*)-5-[4-(2-isopropoxy-phenyl)-piperazin-1-ylmethyl]-4,5-dihydro-isoxazol-3-yl}-morpholin-4-yl-methanone], the Ki is 0.521 µM at α1b-AR (setting [1]); 0.521 µM on α1b-AR (setting [2]); 0.00232 µM on α1a-AR (setting [3]); 0.00232 µM on α1a-AR (setting [4]); 0.0199 µM at α1d-AR (setting [5]); 0.0199 µM on α1d-AR (setting [6]).

With `CC(C)Oc1ccccc1N1CCN(CC2CC(C(=O)N3CCC(Oc4ccccc4)CC3)=NO2)CC1` (single isomer, unassigned) [Compound 38, {(5R*)-5-[4-(2-isopropoxy-phenyl)-piperazin-1-ylmethyl]-4,5-dihydro-isoxazol-3-yl}-(4-phenoxy-piperidin-1-yl)-methanone], the Ki on α1b-AR (setting [1]) worked out at 0.639 µM; at α1b-AR (setting [2]), 0.639 µM; on α1a-AR (setting [3]), 0.132 µM; at α1a-AR (setting [4]), 0.132 µM; on α1d-AR (setting [5]), 0.055 µM; at α1d-AR (setting [6]), 0.055 µM.
